Experimental data reported in patent US8008292B2, “Condensed benzamide compounds and inhibitors of vanilloid receptor subtype 1 (VR1) activity” (Japan Tobacco Inc., priority 2004, dated 2011).

Molecular target: T1, human VR1 (Homo sapiens, UniProt Q8NER1)
T1 construct: expressed in transfected cells
Test: Inhibition of Ca2+ entry in cells caused by proton, in rat glioma (C6BU1) cells stably expressing human VR1 (Fura 2 fluorescence)
Format: cell-based
Conditions: inhibition of proton-induced Ca2+ entry
Experimental: The assay for evaluation of VR1 inhibition by the inventive compounds will be described below. The assay was intended to evaluate in vitro inhibition of Ca^2+ entry in cells caused by proton, one of the VR1 agonists.
Rat glioma (C6BU1) cells stably expressing human VR1 were suspended in 20 mM MES buffer (at pH 6.8, contg. 20 mM 2-morpholinoethanesulfonate (referred to as MES hereinafter), 115 mM NaCl, 5 mM KCl, 1 mM MgCl2 and 14 mM D-glucose) to make a cell density of 1×10^6 cells/mL. A fluorescent dye, Fura 2-AMsolution (DojindoCorporate, Cat. No. 343-05401) was added to the suspension to make a 5 μM concentration thereof. Further, Pluronic F-127 (Wako Pure Chemical Industries, Ltd., Cat. No. P6866) was added to make a 0.1% content thereof. Then, the suspension was incubated at 37° C. for 30 min. The cells were harvested and washed three times with 20 mM MES buffer. The cells were suspended again to make a cell density of 5×10^5 cells/mL. A 500-μL portion of the suspension was taken with a cuvette (MC MEDICAL, INC., Cat. No. SSR3121), to which 10 μL of 20 mM MES buffer containing 250 mM CaCl2 was added to incorporate Ca^2+ into the cells. At the same time, 5 μL of a test compound solution (in a range of 100 μM to 10 nM in DMSO) was also added to provide a final concentration thereof in a range of 1 μM to 0.1 nM. Alternatively, 5 μL of DMSO was added as control to provide a final concentration of 1% DMSO. The suspension was set in an intracellular ionometer (CAF-110; JASCO) 10 min after those additions. The cells were stimulated with protons by addition of 60 μL of 20 mM MES buffer at pH 1.1 to the suspension to set its pH at 5.5. The activity of the test compound was determined as a difference between the minimum of fluorescence intensity before agonist stimulation and its maximum after the stimulation. The value of IC50 was derived from percentage of inhibition by the test compound compared with the control.
In the tables, the symbol “++” indicates an IC50 value less than 100 nM and the symbol “+” indicates an IC50 value of 100 nM to 1,000 nM inclusive.

T1 sequence (Q8NER1 whole entry): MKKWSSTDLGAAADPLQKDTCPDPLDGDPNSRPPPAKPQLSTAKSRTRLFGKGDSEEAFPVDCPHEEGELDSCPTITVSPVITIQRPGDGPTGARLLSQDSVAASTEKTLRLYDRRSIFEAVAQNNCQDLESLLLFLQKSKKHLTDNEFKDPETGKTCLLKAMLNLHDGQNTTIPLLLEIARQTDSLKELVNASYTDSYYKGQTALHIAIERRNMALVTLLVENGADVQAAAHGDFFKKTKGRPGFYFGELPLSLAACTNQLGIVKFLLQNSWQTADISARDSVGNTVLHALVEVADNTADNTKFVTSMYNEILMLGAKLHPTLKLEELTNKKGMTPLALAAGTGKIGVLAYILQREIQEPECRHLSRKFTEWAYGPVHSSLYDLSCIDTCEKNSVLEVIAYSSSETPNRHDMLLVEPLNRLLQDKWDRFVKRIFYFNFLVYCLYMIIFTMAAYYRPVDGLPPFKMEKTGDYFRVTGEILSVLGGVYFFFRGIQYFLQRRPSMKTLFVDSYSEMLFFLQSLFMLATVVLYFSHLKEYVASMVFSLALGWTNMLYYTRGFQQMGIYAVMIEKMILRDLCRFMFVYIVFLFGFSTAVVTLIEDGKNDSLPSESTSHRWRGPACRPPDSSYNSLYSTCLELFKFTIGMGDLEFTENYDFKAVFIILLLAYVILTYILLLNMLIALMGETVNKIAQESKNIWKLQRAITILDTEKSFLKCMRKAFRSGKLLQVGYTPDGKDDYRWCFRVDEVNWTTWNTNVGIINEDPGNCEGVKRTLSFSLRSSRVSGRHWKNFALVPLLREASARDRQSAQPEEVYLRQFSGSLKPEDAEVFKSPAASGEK

SMILES	IC50 [nM]
CC(O)c1cnc(N2CCOc3c(C(=O)Nc4ccc(C(F)(F)F)cc4)cccc32)c(Cl)c1 (single isomer, unassigned; (+)) [Example 2-12, (+)-N-(4-trifluoromethylphenyl)-4-{3-chloro-5-(1-hydroxyethyl)pyridin-2-yl}-3,4-dihydro-2H-benzo[1,4]oxazine-8-carboxamide]	< 100
CC(O)c1cnc(N2CCOc3c(C(=O)Nc4ccc(OC(F)(F)F)cc4)cccc32)c(Cl)c1 (single isomer, unassigned; (+)) [Example 2-14, (+)-N-(4-trifluoromethoxyphenyl)-4-{3-chloro-5-(1-hydroxyethyl)pyridin-2-yl}-3,4-dihydro-2H-benzo[1,4]oxazine-8-carboxamide]	< 100
CC(O)c1cnc(N2CCOc3c(C(=O)Nc4ccc(C(F)(F)F)cc4)cccc32)c(Cl)c1 (single isomer, unassigned; (-)) [Example 2-13, (−)-N-(4-trifluoromethylphenyl)-4-{3-chloro-5-(1-hydroxyethyl)pyridin-2-yl}-3,4-dihydro-2H-benzo[1,4]oxazine-8-carboxamide]	< 100
CC(C)(C)c1ccc(NC(=O)c2cccc3c2OCCN3c2ncccc2Cl)cc1 [Example 1-001, N-(4-tert-butylphenyl)-4-(3-chloropyridin-2-yl)-3,4-dihydro-2H-benzo[1,4]oxazine-8-carboxamide]	< 100
CN1CCN(c2ncccc2Cl)c2cccc(C(=O)Nc3ccc(C(C)(C)C)cc3)c21 [Example 1-004, N-(4-tert-butylphenyl)-1-(3-chloropyridin-2-yl)-4-methyl-1,2,3,4-tetrahydroquinoxaline-5-carboxamide]	< 100
CC(C)(C)c1ccc(NC(=O)c2cccc3c2OCCCN3c2ncccc2Cl)cc1 [Example 1-005, N-(4-tert-butylphenyl)-9-(3-chloropyridin-2-yl)-6,7,8,9-tetrahydro-5-oxa-9-aza-benzocycloheptene-4-carboxamide]	< 100
O=C(Nc1ccc(Cl)cc1)c1cccc2c1OCCN2c1ncccc1Cl [Example 1-006]	< 100
Cc1ccc(NC(=O)c2cccc3c2OCCN3c2ncccc2Cl)cc1 [Example 1-009]	< 100
CC1(C)CN(c2ncccc2Cl)c2cccc(C(=O)Nc3ccc(C(C)(C)C)cc3)c2O1 [Example 1-018]	100 to 1000
CC1CN(c2ncccc2Cl)c2cccc(C(=O)Nc3ccc(C(C)(C)C)cc3)c2O1 (stereo not shown) [Example 1-019]	100 to 1000
O=C(Nc1ccc(Cl)c(C(F)(F)F)c1)c1cccc2c1OCCN2c1ncccc1Cl [Example 1-025]	< 100
O=C(Nc1ccc(F)cc1)c1cccc2c1OCCN2c1ncccc1Cl [Example 1-026]	100 to 1000
O=C(Nc1cccc(C(F)(F)F)c1)c1cccc2c1OCCN2c1ncccc1Cl [Example 1-027]	< 100
O=C(Nc1ccc(C(F)(F)F)nc1)c1cccc2c1OCCN2c1ncccc1Cl [Example 1-030]	< 100
CC(C)c1ccc(NC(=O)c2cccc3c2OCCN3c2ncccc2Cl)cc1 [Example 1-031]	< 100
O=C(Nc1ccc2cccnc2c1)c1cccc2c1OCCN2c1ncccc1Cl [Example 1-032]	100 to 1000
CN1CCCc2ccc(NC(=O)c3cccc4c3OCCN4c3ncccc3Cl)cc21 [Example 1-033]	< 100

SMILES	IC50 [nM]
CCC(C)(O)c1ccc(NC(=O)c2cccc3c2OCCN3c2ncccc2Cl)cc1 (stereo not shown) [Example 1-041, 4-(3-chloropyridin-2-yl)-N-[4-(1-hydroxy-1-methyl)propyl]phenyl-3,4-dihydro-2H-benzo[1,4]oxazine-8-carboxamide]	100 to 1000
CC(C)COc1cccc(NC(=O)c2cccc3c2OCCN3c2ncccc2Cl)c1 [Example 1-045]	< 100
Cc1cccnc1N1CCOc2c(C(=O)Nc3ccc(C(C)(C)C)cc3)cccc21 [Example 1-047]	< 100
O=C(Nc1ccc(N2CCOCC2)cc1)c1cccc2c1OCCN2c1ncccc1Cl [Example 1-050]	100 to 1000
CC(C)Oc1ccc(NC(=O)c2cccc3c2OCCN3c2ncccc2Cl)c(F)c1 [Example 1-052]	< 100
O=C(Nc1ccc(F)c(C(F)(F)F)c1)c1cccc2c1OCCN2c1ncccc1Cl [Example 1-053]	< 100
CN(C)c1ccc(NC(=O)c2cccc3c2OCCN3c2ncccc2Cl)cc1C(F)(F)F [Example 1-054]	< 100
CC(C)Oc1ccc(NC(=O)c2cccc3c2OCCN3c2ncccc2Cl)cc1C(F)(F)F [Example 1-055]	< 100
COc1ccc(NC(=O)c2cccc3c2OCCN3c2ncccc2Cl)cc1C(F)(F)F [Example 1-056]	< 100
CC(C)COc1ccc(NC(=O)c2cccc3c2OCCN3c2ncccc2Cl)cc1C(F)(F)F [Example 1-057]	< 100
Cc1ccnc(N2CCOc3c(C(=O)Nc4ccc(C(C)(C)C)cc4)cccc32)c1 [Example 1-058, N-(4-tert-butylphenyl)-4-(4-methylpyridin-2-yl)-3,4-dihydro-2H-benzo[1,4]oxazine-8-carboxamide]	100 to 1000
Cc1cccc(N2CCOc3c(C(=O)Nc4ccc(C(C)(C)C)cc4)cccc32)n1 [Example 1-059]	100 to 1000
Cc1ccc(N2CCOc3c(C(=O)Nc4ccc(C#N)cc4)cccc32)nc1 [Example 1-062]	< 100
Cc1ccc(N2CCOc3c(C(=O)Nc4ccc(Cl)c(N)c4)cccc32)nc1 [Example 1-063]	< 100
Cc1ccc(N2CCOc3c(C(=O)Nc4ccc(N5CCC(OC(C)C)CC5)c(F)c4)cccc32)nc1 [Example 1-069]	< 100
COC1CCCN(c2ccc(NC(=O)c3cccc4c3OCCN4c3ccc(C)cn3)cc2F)C1 (stereo not shown) [Example 1-070]	< 100

Results, then the compound that gave them:

IC50 [nM]	SMILES
< 100	CC(O)c1cnc(N2CCOc3c(C(=O)Nc4ccc(OC(F)(F)F)cc4)cccc32)c(Cl)c1 (single isomer, unassigned; (-)) [Example 2-15, (−)-N-(4-trifluoromethoxyphenyl)-4-{3-chloro-5-(1-hydroxyethyl)pyridin-2-yl}-3,4-dihydro-2H-benzo[1,4]oxazine-8-carboxamide]
< 100	CC1COc2c(C(=O)Nc3ccc(C(C)(C)C)cc3)cccc2N1c1ncccc1Cl (stereo not shown) [Example 1-003, N-(4-tert-butylphenyl)-4-(3-chloropyridin-2-yl)-3-methyl-3,4-dihydro-2H-benzo[1,4]oxazine-8-carboxamide]
< 100	CC(C)Oc1ccc(NC(=O)c2cccc3c2OCCN3c2ncccc2Cl)cc1 [Example 1-007]
< 100	CC(C)COc1ccc(NC(=O)c2cccc3c2OCCN3c2ncccc2Cl)cc1 [Example 1-011]
< 100	CC(C)(C)c1ccc(NC(=O)c2cccc3c2OCCN3c2ccccn2)cc1 [Example 1-016]
< 100	CC(C)(C)c1ccc(NC(=O)c2cccc3c2OCCN3c2ncccc2C(F)(F)F)cc1 [Example 1-017]
< 100	CC(C)(C)c1ccc(NC(=O)c2cc(Cl)cc3c2OCCN3c2ncccc2Cl)cc1 [Example 1-020]
< 100	O=C(Nc1ccc(OC(F)(F)F)cc1)c1cccc2c1OCCN2c1ncccc1Cl [Example 1-022]
100 to 1000	COc1ccc(NC(=O)c2cccc3c2OCCN3c2ncccc2Cl)cc1 [Example 1-023]
< 100	O=C(Nc1ccc(C(F)(F)F)cn1)c1cccc2c1OCCN2c1ncccc1Cl [Example 1-029]
< 100	COC(=O)c1ccc(NC(=O)c2cccc3c2OCCN3c2ncccc2Cl)cc1 [Example 1-034, 4-(3-chloropyridin-2-yl)-N-(methoxycarbonylphenyl)-3,4-dihydro-2H-benzo[1,4]oxazine-8-carboxamide]
100 to 1000	CC(=O)c1ccc(NC(=O)c2cccc3c2OCCN3c2ncccc2Cl)cc1 [Example 1-039, N-(4-acetylphenyl)-4-(3-chloropyridin-2-yl)-3,4-dihydro-2H-benzo[1,4]oxazine-8-carboxamide]
100 to 1000	CC(C)(C)ON1CCC(NC(=O)c2cccc3c2OCCN3c2ncccc2Cl)CC1 [Example 1-043]
< 100	CC(C)Oc1cccc(NC(=O)c2cccc3c2OCCN3c2ncccc2Cl)c1 [Example 1-044]
< 100	O=C(Nc1ccc(N2CCCCC2)cc1)c1cccc2c1OCCN2c1ncccc1Cl [Example 1-048]
100 to 1000	CN(C)c1ccc(NC(=O)c2cccc3c2OCCN3c2ncccc2Cl)cc1 [Example 1-049]
< 100	Cc1ccc(N2CCOc3c(C(=O)Nc4ccc(C(C)(C)C)cc4)cccc32)nc1 [Example 1-060]
100 to 1000	CC(C)(C)c1ccc(NC(=O)c2cccc3c2OCCN3c2cccnc2)cc1 [Example 1-061]
< 100	CCOC1CCN(c2ccc(NC(=O)c3cccc4c3OCCN4c3ccc(C)cn3)cc2F)CC1 [Example 1-068]
